Assay results reported in US7138361B2, “Herbicidal heterocycles” (E. I. du Pont de Nemours and Company, priority 2000, dated 2006).

Assays:
Experiment in all cases: Test C postemergence
Format in all cases: in vivo
[1] = tested on: chickweed (Stellaria media)
How it was run: (§1)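 Test chemicals, formulated in a non-phytotoxic solvent mixture with surfactant, were applied preemergence to planted seeds or postemergence to plants 2 to 18 cm tall (1- to 4-leaf stage). After 12 to 14 days in a greenhouse, injury was visually rated against untreated controls on a 0–100 scale.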

[2] = tested on: cocklebur (Xanthium strumarium)
How it was run: as §1

[3] = tested on: crabgrass (Digitaria sanguinalis)
How it was run: as §1

[4] = tested on: goosegrass (Eleusine indica)
How it was run: as §1

[5] = tested on: johnsongrass (Sorghum halepense)
How it was run: as §1

[6] = tested on: kochia (Kochia scoparia)
How it was run: as §1

[7] = tested on: soybean (Glycine max)
How it was run: as §1

[8] = tested on: velvetleaf (Abutilon theophrasti)
How it was run: as §1

[9] = tested on: winter barley (Hordeum vulgare)
How it was run: as §1

[10] = tested on: woolly cupgrass (Eriochloa villosa)
How it was run: as §1

[11] = tested on: yellow nutsedge (Cyperus esculentus)
How it was run: as §1

[12] = tested on: blackgrass (Alopecurus myosuroides)
How it was run: as §1

[13] = tested on: green foxtail (Setaria viridis)
How it was run: as §1

[14] = Rate 125 g/ha, scale 0 to 100, 0 no effect, 100 complete control
[15] = Rate 250 g/ha, scale 0 to 100 (0 no effect, 100 complete control)
[16] = Rate 500 g/ha, scale 0 to 100 (0 no effect, 100 complete control)

## CCC(CC)c1ccn(C2OCN(c3cccc(OC(F)(F)F)c3)C2=O)n1 (centres unmarked) [Compound 68]
[1]; Rate 62 g/ha, scale 0 to 100
  Plant response rating, Chickweed: 30
[1]; [14]
  Plant response rating, Chickweed: 40
[1]; [15]
  Plant response rating, Chickweed: 70
[1]; [16]
  Plant response rating, Chickweed: 80
[2]; Rate 62 g/ha, scale 0 to 100
  Plant response rating, Cocklebur: 0
[2]; [14]
  Plant response rating, Cocklebur: 0
[2]; [15]
  Plant response rating, Cocklebur: 0
[2]; [16]
  Plant response rating, Cocklebur: 50
[3]; Rate 62 g/ha, scale 0 to 100
  Plant response rating, Crabgrass: 0
[3]; [14]
  Plant response rating, Crabgrass: 0
[3]; [15]
  Plant response rating, Crabgrass: 0
[3]; [16]
  Plant response rating, Crabgrass: 60
[4]; Rate 62 g/ha, scale 0 to 100
  Plant response rating, Goosegrass: 0
[4]; [14]
  Plant response rating, Goosegrass: 0
[4]; [15]
  Plant response rating, Goosegrass: 0
[4]; [16]
  Plant response rating, Goosegrass: 0
[5]; Rate 62 g/ha, scale 0 to 100
  Plant response rating, Johnsongrass: 0
[5]; [14]
  Plant response rating, Johnsongrass: 0
[5]; [15]
  Plant response rating, Johnsongrass: 0
[5]; [16]
  Plant response rating, Johnsongrass: 20
[6]; Rate 62 g/ha, scale 0 to 100
  Plant response rating, Kochia: 50
[6]; [14]
  Plant response rating, Kochia: 70
[6]; [15]
  Plant response rating, Kochia: 70
[6]; [16]
  Plant response rating, Kochia: 70
[7]; Rate 62 g/ha, scale 0 to 100
  Plant response rating, Soybean: 0
[7]; [14]
  Plant response rating, Soybean: 0
[7]; [15]
  Plant response rating, Soybean: 0
[7]; [16]
  Plant response rating, Soybean: 20
[8]; Rate 62 g/ha, scale 0 to 100
  Plant response rating, Velvetleaf: 0
[8]; [14]
  Plant response rating, Velvetleaf: 0
[8]; [15]
  Plant response rating, Velvetleaf: 0
[8]; [16]
  Plant response rating, Velvetleaf: 30
[9]; [15]
  Plant response rating, Barley, Winter: 0
[10]; Rate 62 g/ha, scale 0 to 100
  Plant response rating, Cupgrass, Woolly: 0
[10]; [14]
  Plant response rating, Cupgrass, Woolly: 0
[10]; [15]
  Plant response rating, Cupgrass, Woolly: 0
[10]; [16]
  Plant response rating, Cupgrass, Woolly: 30
[11]; Rate 62 g/ha, scale 0 to 100
  Plant response rating, Nutsedge: 0
[11]; [14]
  Plant response rating, Nutsedge: 0
[11]; [15]
  Plant response rating, Nutsedge: 0
[11]; [16]
  Plant response rating, Nutsedge: 0

## Cc1ccc(N2CCC(n3ccc(C(C)(C)C)n3)C2=O)cc1OCCCl (centres unmarked) [Compound 109]
[2]; Rate 31 g/ha, scale 0 to 100
  Plant response rating, Cocklebur: 0
[2]; Rate 62 g/ha, scale 0 to 100
  Plant response rating, Cocklebur: 40
[3]; Rate 31 g/ha, scale 0 to 100
  Plant response rating, Crabgrass: 0
[3]; Rate 62 g/ha, scale 0 to 100
  Plant response rating, Crabgrass: 0
[3]; [15]
  Plant response rating, Crabgrass: 0
[4]; Rate 31 g/ha, scale 0 to 100
  Plant response rating, Goosegrass: 0
[4]; Rate 62 g/ha, scale 0 to 100
  Plant response rating, Goosegrass: 0
[4]; [15]
  Plant response rating, Goosegrass: 10
[5]; Rate 31 g/ha, scale 0 to 100
  Plant response rating, Johnsongrass: 0
[5]; Rate 62 g/ha, scale 0 to 100
  Plant response rating, Johnsongrass: 0
[5]; [15]
  Plant response rating, Johnsongrass: 0
[5]; rate not given, scale 0 to 100
  Plant response rating, Johnsongrass: 0
[6]; Rate 31 g/ha, scale 0 to 100
  Plant response rating, Kochia: 80
[6]; Rate 62 g/ha, scale 0 to 100
  Plant response rating, Kochia: 80
[6]; [15]
  Plant response rating, Kochia: 90
[7]; Rate 31 g/ha, scale 0 to 100
  Plant response rating, Soybean: 60
[7]; Rate 62 g/ha, scale 0 to 100
  Plant response rating, Soybean: 70
[7]; [15]
  Plant response rating, Soybean: 70
[8]; Rate 31 g/ha, scale 0 to 100
  Plant response rating, Velvetleaf: 20
[8]; Rate 62 g/ha, scale 0 to 100
  Plant response rating, Velvetleaf: 40
[8]; scale 0 to 100
  Plant response rating, Velvetleaf: 70
[9]; [15]
  Plant response rating, Barley, Winter: 0
[10]; Rate 31 g/ha, scale 0 to 100
  Plant response rating, Cupgrass, Woolly: 0
[10]; Rate 62 g/ha, scale 0 to 100
  Plant response rating, Cupgrass, Woolly: 0
[10]; [15]
  Plant response rating, Cupgrass, Woolly: 0
[11]; Rate 31 g/ha, scale 0 to 100
  Plant response rating, Nutsedge: 0
[11]; Rate 62 g/ha, scale 0 to 100
  Plant response rating, Nutsedge: 0
[11]; [15]
  Plant response rating, Nutsedge: 0

## CC1(c2ccn(C3OCN(c4cccc(OC(F)(F)F)c4)C3=O)n2)CC1 (centres unmarked) [Compound 69]
[12]; Rate 62 g/ha, scale 0 to 100
  Plant response rating, Blackgrass: 0
[12]; [14]
  Plant response rating, Blackgrass: 0
[12]; [15]
  Plant response rating, Blackgrass: 0
[12]; [16]
  Plant response rating, Blackgrass: 20
[13]; Rate 62 g/ha, scale 0 to 100
  Plant response rating, Foxtail, Green: 0
[13]; [14]
  Plant response rating, Foxtail, Green: 30
[13]; [15]
  Plant response rating, Foxtail, Green: 30
[13]; [16]
  Plant response rating, Foxtail, Green: 60
[9]; Rate 62 g/ha, scale 0 to 100
  Plant response rating, Barley, Winter: 0
[9]; [14]
  Plant response rating, Barley, Winter: 0
[9]; [16]
  Plant response rating, Barley, Winter: 10
